Measured values as given in PMC11513893, “Discovery of Oral Degraders of the ROS1 Fusion Protein with Potent Activity against Secondary Resistance Mutations” (Journal of Medicinal Chemistry, 2024).

Experiments:
[1] = test system: ROS1; assay: ROS1 degradation in Ba/F3 cells (WES immunoblotting); assay type: cell-based; conditions: for DC50: concentration needed to reduce ROS1 protein by 50%, Ba/F3 cells; for Dmax (%) (ROS1): maximal degradation of ROS1 in Ba/F3 cells
Protocol: Protein levels were analyzed using a WES instrument according to the WES User Guide from ProteinSimple in duplicate experiments. The samples were mixed with the fluorescent 5 master mix (ProteinSimple) and then heated at 95 °C for 5 min. Boiled samples, biotinylated protein ladder, antibody diluent, Streptavidin-HRP, primary antibodies, ProteinSimple horseradish peroxidase conjugated antirabbit or antimouse secondary antibodies, luminol-peroxide, and wash buffer were loaded into the WES plate (Wes 12–230 kDa Prefilled Plates with Split Buffer, ProteinSimple). The plates and capillary cartridges were loaded into the WES instrument, and protein separation, antibody incubation, and imaging were performed according to manufacturer’s instructions. Compass software (ProteinSimple) was used to acquire the data and to generate the virtual blot image reconstruction and chemiluminescence signal intensity electropherograms. […] Protein levels are expressed as the AUC of the peak chemiluminescence intensity. Antibodies against phospho-ROS1(Tyr2274/2334) (E8F5J), ROS1 (D4D6(R)) were obtained from Cell Signaling Technology.

[2] = test system: Ba/F3 CD74-ROS1 non mutant; assay: Antiproliferation assay (Alamar Blue, 72 h); assay type: cell-based, mouse; conditions: Mus musculus, BaF3, 72 h, Ba/F3 cells, cell growth inhibition
Description: (§1) To assess targeted degradation of ROS1 fusion proteins, we first established a mouse pro-B cell line Ba/F3 as a model expressing the CD74-ROS1 oncogene or CD74-ROS1 with clinically observed secondary/tertiary mutations. The Ba/F3 cell line is dependent on interleukin-3 for survival and proliferation. Upon transduction of oncogenic ROS1, Ba/F3 cells become independent of interleukin-3 but dependent on the transduced driver gene.
(§2) Ba/F3 immortalized murine bone marrow–derived pro-B cells were obtained from Creative Biogene (Shirley, NY) and cultured in RPMI supplemented with 10% FBS and IL3 (0.5 ng/mL). Ba/F3 cells expressing ROS1 variants were maintained in RPMI supplemented with 10% FBS and puromycin (0.7 mg/mL). […] Each compound was dissolved in DMSO and serially diluted in RPMI for cell culture experiments.
(§3) To assess the 72 h effect of drug treatment on cell proliferation, 2000 to 3000 cells were plated in replicates of three in 96-well plates. The plates were placed in an incubator at 37 °C, 5% CO2 for 72 h. Following drug treatments, the cells were incubated with the Alamar Blue Assay reagent (BioRad), 5 μL each well for 4 h at 37 °C and 5% CO2. Luminescence was measured on a multiplate reader and analyzed. […] IC50 values were determined using a nonlinear regression model with a sigmoidal dose response in GraphPad. The data were collected based on triplicate experiments, and presented as mean ± SD.
(§4) The resulting virus was used to infect Ba/F3 cells. After retroviral infection, Ba/F3 cells were selected by incubation with puromycin (0.7 mg/mL) for 2 weeks. For Ba/F3 cells infected by the CD74–ROS1 variants, IL3 was withdrawn from the culture medium at least 2 weeks before the experiments.

[3] = test system: Ba/F3 ROS1-G2032R; assay: Antiproliferation assay; assay type: cell-based, mouse; conditions: Mus musculus, BaF3; Ba/F3 cells, cell growth inhibition, 72 h
Description: as §1, §2, §3, §4

Compound | DC50 [1] | IC50 [2] | IC50 [3] | Dmax (%) (ROS1) [1]
Cc1cc(Nc2ncc(Cl)c(Nc3ccccc3S(=O)(=O)C(C)C)n2)c(OC(C)C)cc1C1CCN(C2CCN(C3CN(c4cccc5c4C(=O)N(C4CCC(=O)NC4=O)C5=O)C3)CC2)CC1 (centres unmarked) [8f, 4-(3-(4-(4-((5-Chloro-4-((2-(isopropylsulfonyl)phenyl)amino)pyrimidin-2-yl)amino)-5-isopropoxy-2-methylphenyl)-[1,4′-bipiperidin]-1′-yl)azetidin-1-yl)-2-(2,6-dioxopiperidin-3-yl)isoindoline-1,3-dione] | 189 nM | 115 ± 22 nM | 3660 ± 299 nM | 67%
Cc1cc(Nc2ncc(Cl)c(Nc3ccccc3S(=O)(=O)C(C)C)n2)c(OC(C)C)cc1C1CCN(C2CCN(CCNc3ccc4c(c3)C(=O)N(C3CCC(=O)NC3=O)C4=O)CC2)CC1 (centres unmarked) [8k, 5-((2-(4-(4-((5-Chloro-4-((2-(isopropylsulfonyl)phenyl)amino)pyrimidin-2-yl)amino)-5-isopropoxy-2-methylphenyl)-[1,4′-bipiperidin]-1′-yl)ethyl)amino)-2-(2,6-dioxopiperidin-3-yl)isoindoline-1,3-dione] | 204 nM | 171 ± 26 nM | 8590 ± 1180 nM | 89%
C[C@@H](Oc1cc(-c2cnn(C3CCN(CC4CN(c5ccc6c(c5)C(=O)N(C5CCC(=O)NC5=O)C6=O)C4)CC3)c2)cnc1N)c1c(Cl)ccc(F)c1Cl (stereo partly drawn) [7f, 5-(3-((4-(4-(6-Amino-5-((R)-1-(2,6-dichloro-3-fluorophenyl)ethoxy)pyridin-3-yl)-1H-pyrazol-1-yl)piperidin-1-yl)methyl)azetidin-1-yl)-2-(2,6-dioxopiperidin-3-yl)isoindoline-1,3-dione] | 622 nM | 569 ± 73 nM | > 5000 nM | 24%
Cc1cc(Nc2ncc(Cl)c(Nc3ccccc3S(=O)(=O)C(C)C)n2)c(OC(C)C)cc1C1CCN(C2CCN(CCCNc3ccc4c(c3)C(=O)N(C3CCC(=O)NC3=O)C4=O)CC2)CC1 (centres unmarked) [8l, 5-((3-(4-(4-((5-Chloro-4-((2-(isopropylsulfonyl)phenyl)amino)pyrimidin-2-yl)amino)-5-isopropoxy-2-methylphenyl)-[1,4′-bipiperidin]-1′-yl)propyl)amino)-2-(2,6-dioxopiperidin-3-yl)isoindoline-1,3-dione] | 452 nM | 598 ± 147 nM | > 10000 nM | 54%
Cc1cc(Nc2ncc(Cl)c(Nc3ccccc3S(=O)(=O)C(C)C)n2)c(OC(C)C)cc1C1CCN(C2CCN(c3ccc4c(c3)C(=O)N(C3CCC(=O)NC3=O)C4=O)CC2)CC1 (centres unmarked) [8j, 5-(4-(4-((5-Chloro-4-((2-(isopropylsulfonyl)phenyl)amino)pyrimidin-2-yl)amino)-5-isopropoxy-2-methylphenyl)-[1,4′-bipiperidin]-1′-yl)-2-(2,6-dioxopiperidin-3-yl)isoindoline-1,3-dione] | 41 nM | 39 ± 8 nM | 1530 ± 521 nM | 88%
Cc1cc(Nc2ncc(Cl)c(Nc3ccccc3S(=O)(=O)C(C)C)n2)c(OC(C)C)cc1C1CCN(CCCNc2cccc3c2C(=O)N(C2CCC(=O)NC2=O)C3=O)CC1 (centres unmarked) [8b, 4-((3-(4-(4-((5-Chloro-4-((2-(isopropylsulfonyl)phenyl)amino)pyrimidin-2-yl)amino)-5-isopropoxy-2-methylphenyl)piperidin-1-yl)propyl)amino)-2-(2,6-dioxopiperidin-3-yl)isoindoline-1,3-dione] | 140 nM | 122 ± 17 nM | > 10000 nM | 71%
C[C@@H](Oc1cc(-c2cnn(C3CCN(CC4CCN(c5cccc6c5C(=O)N(C5CCC(=O)NC5=O)C6=O)CC4)CC3)c2)cnc1N)c1c(Cl)ccc(F)c1Cl (stereo partly drawn) [7c, 4-(4-((4-(4-(6-Amino-5-((R)-1-(2,6-dichloro-3-fluorophenyl)ethoxy)pyridin-3-yl)-1H-pyrazol-1-yl)piperidin-1-yl)methyl)piperidin-1-yl)-2-(2,6-dioxopiperidin-3-yl)isoindoline-1,3-dione] | 368 nM | 350 ± 106 nM | > 5000 nM | 76%
Cc1cc(Nc2ncc(Cl)c(Nc3ccccc3S(=O)(=O)C(C)C)n2)c(OC(C)C)cc1C1CCN(CCNc2cccc3c2C(=O)N(C2CCC(=O)NC2=O)C3=O)CC1 (centres unmarked) [8a, 4-((2-(4-(4-((5-Chloro-4-((2-(isopropylsulfonyl)phenyl)amino)pyrimidin-2-yl)amino)-5-isopropoxy-2-methylphenyl)piperidin-1-yl)ethyl)amino)-2-(2,6-dioxopiperidin-3-yl)isoindoline-1,3-dione] | 225 nM | 176 ± 31 nM | > 10000 nM | 58%

Now from value to compound, other results behind:

DC50 [1] | IC50 [2] | IC50 [3] | Compound | Dmax (%) (ROS1) [1]
56 nM | 61 ± 3 nM | > 10000 nM | COc1cc(N2CCC(N3CCN(CCC4CCN(c5ccc(NC6CCC(=O)NC6=O)cc5)CC4)CC3)CC2)ccc1Nc1ncc(Cl)c(Nc2ccccc2P(C)(C)=O)n1 (centres unmarked) [9t, 3-((4-(4-(2-(4-(1-(4-((5-Chloro-4-((2-(dimethylphosphoryl)phenyl)amino)pyrimidin-2-yl)amino)-3-methoxyphenyl)piperidin-4-yl)piperazin-1-yl)ethyl)piperidin-1-yl)phenyl)amino)piperidine-2,6-dione] | 45%
34 nM | 21 ± 8 nM | 115 ± 12 nM | COc1cc(N2CCN(C3CCN(CC4CCN(c5ccc6c(c5)C(=O)N(C5CCC(=O)NC5=O)C6=O)CC4)CC3)CC2)ccc1Nc1ncc(Cl)c(Nc2ccccc2P(C)(C)=O)n1 (centres unmarked) [9h, 5-(4-((4-(4-(4-((5-Chloro-4-((2-(dimethylphosphoryl)phenyl)amino)pyrimidin-2-yl)amino)-3-methoxyphenyl)piperazin-1-yl)piperidin-1-yl)methyl)piperidin-1-yl)-2-(2,6-dioxopiperidin-3-yl)isoindoline-1,3-dione] | 85%
145 nM | 102 ± 24 nM | > 10000 nM | COc1cc(N2CCC(N3CCN(CC4CCN(c5ccc(NC6CCC(=O)NC6=O)cc5)CC4)CC3)CC2)ccc1Nc1ncc(Cl)c(Nc2ccccc2P(C)(C)=O)n1 (centres unmarked) [9q, 3-((4-(4-((4-(1-(4-((5-Chloro-4-((2-(dimethylphosphoryl)phenyl)amino)pyrimidin-2-yl)amino)-3-methoxyphenyl)piperidin-4-yl)piperazin-1-yl)methyl)piperidin-1-yl)phenyl)amino)piperidine-2,6-dione] | 33%
76 nM | 63 ± 24 nM | > 10000 nM | COc1cc(N2CCC(N3CCN(C(=O)C4CCN(c5ccc(NC6CCC(=O)NC6=O)cc5)CC4)CC3)CC2)ccc1Nc1ncc(Cl)c(Nc2ccccc2P(C)(C)=O)n1 (centres unmarked) [9v, 3-((4-(4-(4-(1-(4-((5-Chloro-4-((2-(dimethylphosphoryl)phenyl)amino)pyrimidin-2-yl)amino)-3-methoxyphenyl)piperidin-4-yl)piperazine-1-carbonyl)piperidin-1-yl)phenyl)amino)piperidine-2,6-dione] | 42%
20 nM | 15.3 ± 4.5 nM | 158 ± 81 nM | COc1cc(N2CCC(N3CCN(CC4CN(c5ccc6c(c5)CN(C5CCC(=O)NC5=O)C6=O)C4)CC3)CC2)ccc1Nc1ncc(Cl)c(Nc2ccccc2P(C)(C)=O)n1 (centres unmarked) [9p, 3-(5-(3-((4-(1-(4-((5-Chloro-4-((2-(dimethylphosphoryl)phenyl)amino)pyrimidin-2-yl)amino)-3-methoxyphenyl)piperidin-4-yl)piperazin-1-yl)methyl)azetidin-1-yl)-1-oxoisoindolin-2-yl)piperidine-2,6-dione] | 94%
133 nM | 112 ± 17 nM | 251 ± 125 nM | COc1cc(N2CCN(c3ccc4c(c3)C(=O)N(C3CCC(=O)NC3=O)C4=O)CC2)ccc1Nc1ncc(Cl)c(Nc2ccccc2P(C)(C)=O)n1 (centres unmarked) [9a, 5-(4-(4-((5-Chloro-4-((2-(dimethylphosphoryl)phenyl)amino)pyrimidin-2-yl)amino)-3-methoxyphenyl)piperazin-1-yl)-2-(2,6-dioxopiperidin-3-yl)isoindoline-1,3-dione] | 68%
